Values joined by “and” are separate entries in the source; they are usually repeats but may differ in a detail not shown here. Equal entries are not always repeated. Marks after values point to notes of the source that are not given here.
Test system: A549 human lung carcinoma cells
Assay: In vitro potency assay for Photofrin®: A549 cells, 4 h drug absorption, wash, 10 min irradiation at 400-650 nm, 24 h, XTT viability, 4PL EC50
Format: cell-based
Parameters: key to EC50-XTT / EC50 STD / EC50 Test: EC50 as Photofrin concentration in μg/mL (4PL inflection point)
Details: for EC50 STD / EC50 Test: in µg/mL; for EC50 Test / EC50 Test, Mean: Test (35 μg/mL high test drug concentration)
Protocol: Cell passaging of A549 cells is performed using fixed seeding densities to reduce assay variation resulting from cell culture conditions. […] Working in very low light conditions, Photofrin® is reconstituted in normal saline to 2.5 mg/mL and diluted further in culture medium at twice the desired final assay concentration, typically 140 μg/mL. A series of two-fold dilutions were then prepared from the 140 μg/mL solution and the diluted drug was added to the cells at 1:1 (v/v) according to the diagram shown in FIG. 11.
[…] The plate is then removed from the incubator, the drug is aspirated, the wells are washed with Dulbecco's phosphate buffered saline (DPBS) and fresh, pre-warmed medium is added to the wells. […] […] The wells covered with foil strips are important controls for the activity of Photofrin® in the absence of irradiation and the effect of light on the cells in the absence of drug.
The optical absorbance of the wells in column 1 (high drug concentration, no cells) is evaluated for absorption at 450 nm to ensure that the drug is not interfering with the XTT assay. The percent viability of each of the wells in columns 2-9 and 11 is calculated relative to the mean value of column 10 (cell control, no drug, no light). For each dose response obtained, a four parameter logistic (4PL) nonlinear regression analysis is performed of the percent viability versus the log-Photofrin® concentration. The point of inflection of the regression curve (C value) is defined as the EC50 and used in the calculation of relative potency. Curve fitting and calculation of the EC50 is performed with Softmax v5.4.2 (Molecular Devices, Inc.) or Prism v.5.04 (GraphPad, Software Inc.) software. The mean percent viability of columns 9 and 11 is also calculated.
• 1. Materials and Reagents • 1.1. A549 Human Lung Carcinoma (ATCC—Cat. No.: CCL-185) • 1.2. 25 cm^2 Flasks (Corning—Cat. No.: 431463, or equivalent) • 1.3. 75 cm^2 Flasks (Corning—Cat. No.: 431464, or equivalent) • 1.4. 50 mL tubes (Fisher Scientific—Cat. No. 17-512F, or equivalent) • 1.5. Hemacytometer • 1.6. RPMI-1640 (+) phenol red (Lonza—Cat. No.: 12-167F, or equivalent) • 1.7. HI-FBS (Gibco—Life Technologies—Cat No.: 10082-147, or equivalent) • 1.8. 200 mM L-Glutamine (Lonza—Cat. No.: 17-605E, or equivalent) • 1.9. 0.25% Trypsin-EDTA (Gibco—Cat. No.: 25200-056, or equivalent) • 2. Instruments • 2.1. Forma Scientific centrifuge with swinging bucket rotor (Model 5682, or equivalent) • 2.2. Water bath set at 37° C. • 2.3. […] Prepared Reagents • 3.1. RPMI-1640 Complete Media • 3.1.1. 500 mL bottle of RPMI-1640 basal media containing phenol red • 3.1.2. Add 50 mL HI-FBS • 3.1.3. Add 5.5 mL of 200 mM L-Glutamine • 4. Procedure • 4.1. Remove one vial of A549 lung carcinoma cells from liquid nitrogen storage and after ensuring that the vial is tightly closed, rapidly thaw vial by holding all but the top of the vial submerged in a 37° C. water bath until the vial contents begins to thaw but while ice still remains. • 4.2. Liberally spray the vial with 70% ethanol, wipe with tissue, and place into a laminar flow hood. • 4.3. Transfer the contents of the vial to a 50 mL conical tube containing 9 mL RPMI-1640 complete medium containing phenol red (Step 3.1) (hereafter referred to as complete medium in this method). • 4.4. Centrifuge the tube in a swing bucket rotor set at 1200 RPM (220 RCF) for five minutes at room temperature. • 4.5. Discard supernatant and gently flick the tube to resuspend the cells in the residual volume left in the tube. • 4.6. Add 5 mL complete medium, transfer the cell solution to a 25 cm^2 flask, and then place the flask into a 37° C. incubator with 5% CO2. • 4.7. Monitor the flask daily and when the cells reach approximately 80% confluence, remove the media, and wash the cells by adding 2 mL DPBS to the flask. Ensure that all cells are rinsed and discard the DPBS. • 4.8. Add 1 mL 0.25% trypsin-EDTA to prewash the cells, tip flask to coat all cells, and discard the trypsin. • 4.9. […]

Substance: porfimer sodium [Photofrin®]
- ratio of the standard to test sample EC50 (FIG. 12, standard preparation versus preparation containing half of the nominal activity): 0.5
- EC50 STD (Standard sample (70 μg/mL high test drug concentration), A549 cells at passage P10): 10.5
- EC50 STD (Standard sample (70 μg/mL high test drug concentration), A549 cells at passage P17): 10.1
- EC50 STD (Standard sample (70 μg/mL high test drug concentration), Inter-operator Assay, AB-1): 6.37
- EC50 STD (Standard sample (70 μg/mL high test drug concentration), Inter-operator Assay, AB-2): 8.23
- EC50 STD, Mean (Standard sample (70 μg/mL high test drug concentration), Inter-operator Assay, mean of operator AB plates): 7.3 µg/mL
- EC50 STD (Standard sample (70 μg/mL high test drug concentration), Photofrin® absorption time 3.5 hours): 10.4
- EC50 STD (Standard sample (70 μg/mL high test drug concentration), absorption time 4.0 hours): 10.2
- EC50 STD (Standard sample (70 μg/mL high test drug concentration), absorption time 4.5 hours): 9.23
- EC50 STD (Standard sample (70 μg/mL high test drug concentration), irradiation time 8 minutes): 12.0
- EC50 STD (Standard sample (70 μg/mL high test drug concentration), irradiation time 9 minutes): 12.0
- EC50 STD (Standard sample (70 μg/mL high test drug concentration), irradiation time 10 minutes): 11.1
- EC50 STD (Standard sample (70 μg/mL high test drug concentration), irradiation time 11 minutes): 11.6
- EC50 STD (Standard sample (70 μg/mL high test drug concentration), irradiation time 12 minutes): 10.8
- EC50 STD (Standard sample (70 μg/mL high test drug concentration), operator AB Pilot Assay-1): 6.62
- EC50 STD (Standard sample (70 μg/mL high test drug concentration), operator AB Pilot Assay-2): 6.76
- EC50 STD (Standard sample (70 μg/mL high test drug concentration), post-irradiation incubation time 22 hours): 9.16
- EC50 STD (Standard sample (70 μg/mL high test drug concentration), post-irradiation incubation time 24 hours): 10.2
- EC50 STD (Standard sample (70 μg/mL high test drug concentration), post-irradiation incubation time 26 hours): 9.55
- EC50 STD (Standard sample (70 μg/mL high test drug concentration), post-irradiation temperature 35° C.): 9.68
- EC50 STD (Standard sample (70 μg/mL high test drug concentration), post-irradiation temperature 37° C. (nominal, two experiments)): 10.8 and 9.9
- EC50 STD (Standard sample (70 μg/mL high test drug concentration), post-irradiation temperature 39° C.): 8.32
- Standard Sample EC50 (Standard sample, 70 μg/mL high test concentration, Plate 1 (placement Standard, Test; left to right dilution; controls in columns 9-11)): 11.1 µg/mL
- Standard Sample EC50 (Standard sample, 70 μg/mL high test concentration, Plate 2 (placement Test, Standard; left to right dilution; controls in columns 9-11)): 10.7 µg/mL
- Standard Sample EC50 (Standard sample, 70 μg/mL high test concentration, Plate 3 (right to left dilution; controls in columns 9-11)): 11.2 µg/mL
- Standard Sample EC50 (Standard sample, 70 μg/mL high test concentration, Plate 4 (placement Standard, Test; left to right dilution; controls in columns 9-11)): 11 µg/mL
- Standard Sample EC50 (Standard sample, 70 μg/mL high test concentration, Plate 5 (left to right dilution; controls in columns 2-4)): 10.8 µg/mL
- Standard Sample EC50, Mean (Standard sample, 70 μg/mL high test concentration, mean across Plates 1-5 of positional analysis): 11 µg/mL
- EC50 Test (A549 cells at passage P10, wide confidence interval due to poor curve fitting): 18.9**
- EC50 Test (A549 cells at passage P17): 19.2
- EC50 Test (Inter-operator Assay, AB-1): 13.7
- EC50 Test (Inter-operator Assay, AB-2): 14.6
- EC50 Test, Mean (Inter-operator Assay, mean of operator AB plates): 14.2 µg/mL
- EC50 Test, Mean (Inter-operator Assay, mean of operator KP plates): 20 µg/mL
- EC50 Test (Inter-operator Assay, operator KP, both plates KP-1): 20.1 and 19.8
- EC50 Test (absorption time 3.5 hours): 19.5
- EC50 Test (absorption time 4.0 hours): 20.1
- EC50 Test (absorption time 4.5 hours): 16.1
- EC50 Test (irradiation time 8 minutes): 24.5
- EC50 Test (irradiation time 9 minutes): 25.2
- EC50 Test (irradiation time 10 minutes): 22.8
- EC50 Test (irradiation time 11 minutes): 20.9
- EC50 Test (irradiation time 12 minutes): 21.0
- EC50 Test (operator AB Pilot Assay-1): 16.1
- EC50 Test (operator AB Pilot Assay-2): 12.6
- EC50 Test (post-irradiation incubation time 22 hours): 16.7
- EC50 Test (post-irradiation incubation time 24 hours): 18.9
- EC50 Test (post-irradiation incubation time 26 hours): 16.6
- EC50 Test (post-irradiation temperature 35° C.): 21.6
- EC50 Test (post-irradiation temperature 37° C. (nominal, two experiments)): 19.9 and 20.0
- EC50 Test (post-irradiation temperature 39° C.): 16.1
- EC50 Test (seeding density 0.8 × 10^4 cells/well): 21.1
- EC50 Test (seeding density 1.2 × 10^4 cells/well): 27.9
- EC50 Test (seeding density 1.9 × 10^4 cells/well): 21.3
